Experiments:
[1] = test system: Bacteroides vulgatus JCM 5826; experiment: Assimilation test by intestinal microorganism; type: cell-based; settings: 0.5 w/v % saccharide in PYF broth, 37° C., 96 hours
[2] = test system: Bacteroides uniformis JCM 5828; experiment: Assimilation test by intestinal microorganism; type: cell-based; settings: 0.5 w/v % saccharide in PYF broth, 37° C., 96 hours
[3] = test system: Bifidobacterium breve JCM 1192; experiment: Assimilation test by intestinal microorganism; type: cell-based; settings: 0.5 w/v % saccharide in PYF broth, 37° C., 96 hours
[4] = test system: Bifidobacterium adolescentis JCM 1275; experiment: Assimilation test by intestinal microorganism; type: cell-based; settings: 0.5 w/v % saccharide in PYF broth, 37° C., 96 hours
[5] = test system: Bifidobacterium animalis JCM 1190; experiment: Assimilation test by intestinal microorganism; type: cell-based; settings: 0.5 w/v % saccharide in PYF broth, 37° C., 96 hours
bifid bacteria [6] = experiment: Assimilation test by intestinal microorganism, overall judgement; type: cell-based; settings: results of Tables 4 and 5
Procedure: To evaluate the growth rate of and to judge the assimilability by the microorganisms, the resultant broth was diluted 5-fold, and the turbidity of the dilution was measured at a wavelength of 750 nm in a 1-cm light-path cell. […] The criteria were in Table 3, and the results were in Tables 4 and 5: […]

[7] = test system: Eubacterium aerofaciens ATCC 25986; experiment: Assimilation test by intestinal microorganism; type: cell-based; settings: 0.5 w/v % saccharide in PYF broth, 37° C., 96 hours
[8] = test system: Enzyme from small intestinal mucus membrane; settings: enzymes of small intestinal mucus membranes
[9] = test system: Bacteroides distasonis JCM 5825; experiment: Assimilation test by intestinal microorganism; type: cell-based; settings: 0.5 w/v % saccharide in PYF broth, 37° C., 96 hours
[10] = Maillard reaction (coloration with glycine); type: physicochemical; settings: 10 w/v % saccharide, one w/v % glycine, 50 mM phosphate buffer pH 7.0, 100° C., 90 min; 1-cm cell
[11] = test system: Clostridium ramosum JCM 1298; experiment: Assimilation test by intestinal microorganism; type: cell-based; settings: 0.5 w/v % saccharide in PYF broth, 37° C., 96 hours
[12] = test system: Escherichia coli IFO 3301; experiment: Assimilation test by intestinal microorganism; type: cell-based; settings: 0.5 w/v % saccharide in PYF broth, 37° C., 96 hours
[13] = test system: Streptococcus faecalis IAM 10065; experiment: Assimilation test by intestinal microorganism; type: cell-based; settings: 0.5 w/v % saccharide in PYF broth, 37° C., 96 hours
[14] = test system: Lactobacillus fermentum IFO 3959; experiment: Assimilation test by intestinal microorganism; type: cell-based; settings: 0.5 w/v % saccharide in PYF broth, 37° C., 96 hours
[15] = test system: Bifidobacterium infantis JCM 1222; experiment: Assimilation test by intestinal microorganism; type: cell-based; settings: 0.5 w/v % saccharide in PYF broth, 37° C., 96 hours
[16] = test system: Clostridium butyricum JCM 1391; type: cell-based; settings: 0.5 w/v % saccharide in PYF broth, 37° C., 96 hours
[17] = test system: Peptostreptococcus prevotii ATCC 9321; experiment: Assimilation test by intestinal microorganism; type: cell-based; settings: 0.5 w/v % saccharide in PYF broth, 37° C., 96 hours
[18] = test system: Bifidobacterium bifidum JCM 1255; experiment: Assimilation test by intestinal microorganism; type: cell-based; settings: 0.5 w/v % saccharide in PYF broth, 37° C., 96 hours
bifid bacteria [19] = experiment: Influence on growth-promoting activity for bifid bacteria in vivo (feces of volunteers); design: species or system human; settings: after vs before 14-day administration; span over both saccharides
Procedure: The weight of daily feces before and after the 14-day administration tests, the relative change of feces' weight, the feces' pH, the total number of microorganisms per g of feces, the percentage of the number of bifid bacteria to the total number of microorganisms in feces, and the relative change of the total number of bifid bacteria were measured, followed by calculating the mean value of the five volunteers. Among these measurements, the total number of microorganisms was determined in accordance with the method as reported in "A Color Atlas of Anaerobic Bacteria", pp.53-65 (1984), edited by Tomotari MITSUOKA, published by Kabushiki Kaisha Sobunsha, Tokyo, Japan (1984): The colonies grown in 13 different types of media excluding M10 medium were judged for which genus they belong to and counted for cells. The cell count obtained with a specific medium, which gave the highest number of microorganisms for each genus, was determined to be a real cell count. The total cell count of microorganisms of all the genera was determined to be the total number of microorganisms in each volunteer's feces.

[20] = test system: Bifidobacterium longum JCM 1217; experiment: Assimilation test by intestinal microorganism; type: cell-based; settings: 0.5 w/v % saccharide in PYF broth, 37° C., 96 hours
[21] = test system: crude glucosyltransferase specimen derived from Streptococcus sobrinus strain (ATCC 27351); experiment: Inhibition of insoluble glucan formation by glucosyltransferase from dental caries-inducing microorganism; type: biochemical; settings: sucrose plus test saccharide (one ml of one w/v % each), pH 6.8, 37° C., 16 hours; for Yield of non-adsorbed glucans: sucrose alone 923; for Yield of adsorbed glucans: sucrose alone 1,160
Procedure: To a mixture solution consisting of one ml of one w/v % sucrose solution, one ml of one w/v % of a test saccharide solution, and 1.5 ml of 0.1M phosphate buffer (pH 6.8) was added 0.5 ml solution containing a crude glucosyltransferase specimen in a total protein content of 10 mg, and the mixture solution was placed in a small test tube which was then fixed and slanted to give a grade 30 degrees and allowed to react at 37° C. for 16 hours. The reaction mixture was transferred gently to another test tube and mixed with a solution obtained by washing carefully with 4 ml water the remaining substances adhered to the inner walls of the small test tube, and the mixture solution was centrifuged to obtain a precipitate as a non-adsorbed glucan. The amounts of the adsorbed- and non-adsorbed glucans thus obtained were respectively quantified by the anthrone-sulfuric acid method, and the total amount of them was regarded as the amount of the formed insoluble glucans. As a control system, a reaction system using water in place of the test saccharide solution, i.e. a reaction system using sucrose as a saccharide, was provided.

[22] = test system: Streptococcus sobrinus ATCC 27351; experiment: Acid formation by dental caries-inducing microorganisms; settings: living wet cells, 0.02M saccharide, Stephen buffer pH 7.0, 37° C.; for pH at each fermentation time (min): 0: 0 min; for pH at each fermentation time (min): 5: 5 min; for pH at each fermentation time (min): 15: 15 min; for pH at each fermentation time (min): 30: 30 min; for pH at each fermentation time (min): 60: 60 min; for pH at each fermentation time (min): 90: 90 min
[23] = test system: Lactobacillus plantarum IFO 3070; experiment: Assimilation test by intestinal microorganism; type: cell-based; settings: 0.5 w/v % saccharide in PYF broth, 37° C., 96 hours
[24] = test system: Clostridium perfringens JCM 3816; type: cell-based; settings: 0.5 w/v % saccharide in PYF broth, 37° C., 96 hours
Acute toxicity test = type: in vivo; settings: oral, mice, highest possible dose
Text: As a result, no mouse died even when administered with a highest possible dose. This means that the LD50 is 50 g/kg mouse or more and concludes that it is extremely low in toxicity.

SMILES | Judgement of assimilation (turbidity at a wavelength of 750 nm × 5) [1] | Judgement of assimilation (turbidity at a wavelength of 750 nm × 5) [2] | Judgement of assimilation (turbidity at a wavelength of 750 nm × 5) [3] | Judgement of assimilation (turbidity at a wavelength of 750 nm × 5) [4] | Judgement of assimilation (turbidity at a wavelength of 750 nm × 5) [5] | Selective assimilability by bifid bacteria, in words (bifid bacteria [6]) | Judgement of assimilation (turbidity at a wavelength of 750 nm × 5) [7] | Digestibility, judgement in words [8] | Judgement of assimilation (turbidity at a wavelength of 750 nm × 5) [9] | Coloration degree (at a wavelength of 480 nm) [10] | Judgement of assimilation (turbidity at a wavelength of 750 nm × 5) [11] | Judgement of assimilation (turbidity at a wavelength of 750 nm × 5) [12] | Judgement of assimilation (turbidity at a wavelength of 750 nm × 5) [13] | Judgement of assimilation (turbidity at a wavelength of 750 nm × 5) [14] | Judgement of assimilation (turbidity at a wavelength of 750 nm × 5) [15] | Judgement of assimilation (turbidity at a wavelength of 750 nm × 5) [17] | Judgement of assimilation (turbidity at a wavelength of 750 nm × 5) [18] | Increase of the total cell count of bifid bacteria (bifid bacteria [19]) | Judgement of assimilation (turbidity at a wavelength of 750 nm × 5) [20] | Yield of non-adsorbed glucans [21] | also measured
OC[C@H]1O[C@H](OC[C@H]2O[C@H](O[C@H]3O[C@H](CO[C@H]4O[C@H](CO)[C@@H](O)[C@H](O)[C@H]4O)[C@@H](O)[C@H](O)[C@H]3O)[C@H](O)[C@@H](O)[C@@H]2O)[C@H](O)[C@@H](O)[C@@H]1O [α-Isomaltosyl α-isomaltoside, O-α-D-glucopyranosyl-(1→6)-α-D-glucopyranosyl O-α-D-glucopyranosyl-(1→6)-α-D-glucopyranoside] | - (Less than 0.1) | - (Less than 0.1) | +++ (0.3 or higher) | +++ (0.3 or higher) | +++ (0.3 or higher) | high in the selective assimilability by bifid bacteria | - (Less than 0.1) | relatively-low in digestibility | - (Less than 0.1) | 0.016 | - (Less than 0.1) | - (Less than 0.1) | - (Less than 0.1) | - (Less than 0.1) | +++ (0.3 or higher) | ± (0.1 or higher but less than 0.15) | ++ (0.2 or higher but less than 0.3) | 2.3- to 2.5 fold | +++ (0.3 or higher) | 298 µg/mL | Judgement of assimilation (turbidity at a wavelength of 750 nm × 5) [16]: +++ (0.3 or higher); Yield of adsorbed glucans [21]: 72 µg/mL; pH at each fermentation time (min): 0 [22]: 7.0; pH at each fermentation time (min): 5 [22]: 7.0; pH at each fermentation time (min): 15 [22]: 6.9; pH at each fermentation time (min): 30 [22]: 6.9; pH at each fermentation time (min): 60 [22]: 6.9; pH at each fermentation time (min): 90 [22]: 6.9; Judgement of assimilation (turbidity at a wavelength of 750 nm × 5) [23]: - (Less than 0.1); Judgement of assimilation (turbidity at a wavelength of 750 nm × 5) [24]: - (Less than 0.1)
OC[C@H]1O[C@H](OC[C@H]2O[C@H](O[C@H]3O[C@H](CO)[C@@H](O)[C@H](O)[C@H]3O)[C@H](O)[C@@H](O)[C@@H]2O)[C@H](O)[C@@H](O)[C@@H]1O [O-α-D-glucopyranosyl-(1→6)-α-D-glucopyranosyl α-D-glucopyranoside] | - (Less than 0.1) | - (Less than 0.1) | +++ (0.3 or higher) | +++ (0.3 or higher) | +++ (0.3 or higher) | high in the selective assimilability by bifid bacteria | - (Less than 0.1) | slightly hydrolyzed | - (Less than 0.1) | 0.021 | - (Less than 0.1) | - (Less than 0.1) | - (Less than 0.1) | - (Less than 0.1) | +++ (0.3 or higher) | ± (0.1 or higher but less than 0.15) | ++ (0.2 or higher but less than 0.3) | 2.3- to 2.5 fold | +++ (0.3 or higher) | 118 µg/mL | Mortality in acute toxicity test, in words (Acute toxicity test): no mouse died; Yield of adsorbed glucans [21]: 30 µg/mL; pH at each fermentation time (min): 0 [22]: 7.0; pH at each fermentation time (min): 5 [22]: 7.0; pH at each fermentation time (min): 15 [22]: 6.9; pH at each fermentation time (min): 30 [22]: 6.9; pH at each fermentation time (min): 60 [22]: 6.9; pH at each fermentation time (min): 90 [22]: 6.9; Judgement of assimilation (turbidity at a wavelength of 750 nm × 5) [23]: - (Less than 0.1); Judgement of assimilation (turbidity at a wavelength of 750 nm × 5) [24]: + (0.15 or higher but less than 0.2)
